Reference: patent US20140309275A1, “Sphingosine Analogs, Compositions, and Methods Related Thereto” (Emory University, priority 2011, published 2014)
Read-outs that look alike come from different tables or passages of the source.

How the values were obtained:
[1] = Mouse tumor concentrations (human prostate cancer xenograft); type: in vivo, Nude mice; set-up: unit not given here; details: tumors harvested, LC/MS/MS
From the text: Nude mice were subjected to human prostate cancer xenograft procedures, and resulting tumors were allowed to grow for 16 days. […] Once the scheduled time course had passed, the mice were sacrificed. Tumors were harvested, homogenized, and analyzed by LC/MS/MS for tumor-drug concentration.

[2] = tested on: P. falciparum chloroquine resistant (CQ-R) W2 strain; test: [3H]-labeled hypoxanthine uptake assay, P. falciparum W2; type: cell-based; details: Plasmodium falciparum
From the text: (§1) The [^3H]-labeled hypoxanthine uptake method was utilized to assay the effectiveness of our sphingoid base analogs in vitro for their ability to inhibit the growth and replication of malaria parasites in RBCs. […] The simian malaria parasite P. knowlesi has also been recognized as a human pathogen of public health concern in South East Asia, and it can be cultured effectively in vitro. This species was therefore included to probe the potential of multi-species efficacy within this compound class.
(§2) Cryopreserved iRBCs were provided by Dr. John W. Barnwell from the Centers for Disease Control and Prevention and maintained in in vitro culture as described in Trager & Jensen, Science 1976, 193 (4254), 673-5.
(§3) Compounds in Table 1 were dissolved in 70% 200-proof pharmaceutical grade ethanol, and a working solution of 0.2 mg/mL was prepared using hypoxanthine- and gentamicin-free incomplete RPMI 1640 (Gibco). Compounds in Table 2 were dissolved in 200 proof pharmaceutical grade ethanol at a concentration of 50 μM and then conjugated to BSA (Sigma) as described.^5 A working solution of 0.2 mg/mL was prepared using hypoxanthine- and gentamicin-free incomplete RPMI 1640 (Gibco). Two compounds were tested per plate in triplicate starting at 0.2 mg/mL and diluted two-fold down to 0.019 μg/mL using hypoxanthine- and gentamicin-free RPMI.
(§4) Parasite inoculum was prepared by mixing parasitized blood, uninfected 0+RBCs (for P. falciparum strains) or rhesus RBCs (for P. knowlesi) and culture medium (deficient in hypoxanthine and gentamicin) to a final concentration of 1% parasitemia and 1% haematocrit. A negative control was prepared by diluting uninfected erythrocytes to 1% haematocrit in culture medium. [^3H]-labeled hypoxanthine was added at 24 h (for P. falciparum strains) or 12 h (P. knowlesi) and the culture was collected 48 h or 12 h later for P. falciparum or P. knowlesi, respectively. [^3H] uptake was measured by using a scintillation spectrophotometer (Wallac Oy 1450 MicroBeta reader).
(§5) Triplicate wells were used to calculate the IC50 for each compound using the software XLFit v5.2 using the sigmoidal model 601. Average and standard deviations were calculated using Microsoft Excel.

[3] = tested on: P. falciparum chloroquine susceptible (CQ-S) D6 strain; test: [3H]-labeled hypoxanthine uptake assay, P. falciparum D6; type: cell-based; details: Plasmodium falciparum, read-out: IC50 D6
From the text: as §1, §2, §3, §4, §5

[4] = tested on: P. knowlesi H strain; test: [3H]-labeled hypoxanthine uptake assay, P. knowlesi; type: cell-based; details: Plasmodium knowlesi; Table 1; compounds dissolved in 70% ethanol, not BSA-conjugated
From the text: as §1, with “class. The data were generated with the known antimalarial drugs chloroquine and mefloquine as controls.” for “class.”
The H strain of P. knowlesi has been adapted to in vitro culture using Macaca mulatta (rhesus monkey) RBCs essentially as described in Kocken et al., Infect Immun 2002, 70 (2), 655-60 (the media was supplemented with 10% human AB serum).
Chloroquine (Sigma) and mefloquine (Sigma) were used as controls. Compounds in Table 1 were dissolved in 70% 200-proof pharmaceutical grade ethanol, and a working solution of 0.2 mg/mL was prepared using hypoxanthine- and gentamicin-free incomplete RPMI 1640 (Gibco). Compounds in Table 2 were dissolved in 200 proof pharmaceutical grade ethanol at a concentration of 50 μM and then conjugated to BSA (Sigma) as described.^5 A working solution of 0.2 mg/mL was prepared using hypoxanthine- and gentamicin-free incomplete RPMI 1640 (Gibco). Two compounds were tested per plate in triplicate starting at 0.2 mg/mL and diluted two-fold down to 0.019 μg/mL using hypoxanthine- and gentamicin-free RPMI.
as §4, §5

[5] = tested on: LNCaP prostate cancer cells; test: WST-1 cytotoxicity assay, LNCaP; type: cell-based; details: Homo sapiens, 24 h treatment
Experimental: (§6) Prostate cancer cells were treated with enigmol or analogue for 24 h, and cytotoxicity was assessed by WST-1 assay. cLogPs were calculated with QuikProp on Maestro.

[6] = tested on: PC-3 prostate cancer cells; test: WST-1 cytotoxicity assay, PC-3; type: cell-based; details: 24 h treatment
Experimental: as §6

[7] = Mouse PK studies (plasma and RBC levels); type: in vivo; details: mice; for PK dose proportionality / plasma half-lives: p.o. 10 or 30 mg/kg single dose
Experimental: Enigmol (E) or N-Methyl-enigmol (NME) were dissolved as 10× stocks in ethanol, then diluted 1:10 in olive oil the day before dosing; dosing solutions were stored at room temperature overnight. Male mice, CD-1 or Swiss Webster (20 to 30 g), were dosed p.o. at either 10 or 30 mg/kg and 5 ml/kg (n=3/time point). For single dose studies with E and NME, bloods were sampled at 0.5, 1, 2, 4, 6, 8, 16 & 24 hrs. For the 5 day repeat dose study with E, samples were taken on day 5 at 0 (trough) 0.5, 1, 2, 4, 6, 8 & 24 hrs. Blood (˜0.3 ml) was obtained either from the submandibular vein using a 4 mm Small Animal Lancet (MEDIpoint), or by retro-orbital bleeding into 200 uL glass micropipettes (Drummond) under isoflurane anesthesia. Each mouse was sampled once and blood transferred immediately to 0.5 ml K EDTA or Li heparin microtainers (BD) in ice water. Tubes were centrifuged at 2000×g for 10 min in a refrigerated centrifuge to separate plasma from RBCs. The plasma supernatants and RBC pellets (when taken) were transferred into separate 1.5 mL Eppendorf tubes in ice water, then frozen on dry ice and stored at −80° C. prior to analysis by LC/MS/MS. Mouse plasma determinations of Enigmol and N-methylenigmol were done using a bioanalytical assay method consisting of a protein precipitation sample preparation step followed by analysis on an AB SCIEX QTRAP® 5500 LC/MS/MS System. The method employed an internal standard (ISTD) spiking technique with D17:0 sphinganine as the ISTD. The lower limit of quantitation (LLOQ) for the assay method was 10 ng/mL and the upper limit of quantitation (ULOQ) for the assay method was 1,000 ng/mL for both Enigmol and N-methylenigmol. Each bioanalytical run consisted of eight matrixes (mouse plasma) spiked calibration standards and six matrixes spiked quality control (QC) samples at three levels (30 ng/mL, 500 ng/mL, and 900 ng/mL) in duplicate along with unknown mouse study samples. […] Estimates of pharmacokinetic parameters from the single dose (10 mg/kg and 30 mg/kg PO) mouse studies were determined using WinNonlin® (Pharsight, Version 5.3).

[8] = tested on: P. falciparum W2 strain parasites; test: Morphological changes and parasitemia upon incubation, Giemsa-stained thin blood smears; type: cell-based
Experimental: Upon preliminary examination, morphological changes were detected in the P. falciparum W2 strain parasites after incubation of the cultures with N-Methylenigmol (ESPD-507). The effect was evident between 28 h and 48 h of incubation, with a quantitatively high percentage of various aberrant or stunted forms of ring-stage and trophozoite-stage parasites found on Giemsa-stained thin blood smears (see black arrows in FIG. 2 at 28 h highlighting the presence of abundant ring-stage parasites and at 48 h, noting a vacuolated appearance of trophozoite-stage parasites). These findings can be contrasted with the normal growth, development, and maturation of the parasites without the drug.
By the 48 hour time point, the parasitemia increased from 1% to 5.8+/−0.5% with healthy appearing parasites in the control samples, as expected, while it remained at 1.3+/−0.3% and with aberrant parasite forms in the sample incubated with N-Methylenigmol (Table 2). The relative percentages of rings, trophozoites and schizonts in the cultures with and without the ESPD 507 compound were 41.9%, 39.2% and 18.9% versus 87.9%, 4.2% and 8.05, respectively.
Samples were removed every 4 h and thin blood smears were prepared, stained with modified Giemsa stain, and analyzed by light microscopy for morphological changes in growth and development. The modular incubator used was gassed and returned to 37° C. in less than 5 minutes to avoid delay in parasite growth.

[9] = tested on: sphingomyelin synthase; details: background section; read-out: IC50 sphingomyelin synthase activity in RBCs; cited from earlier work
[10] = W2, Table 1, compounds dissolved in 70% ethanol, not BSA-conjugated, read-out: IC50 W2
[11] = W2, Table 2, compounds conjugated to BSA, read-out: IC50 W2
[12] = D6, Table 1, compounds dissolved in 70% ethanol, not BSA-conjugated
[13] = D6, Table 2, compounds conjugated to BSA

Structure (SMILES) | tumor-drug concentration ([1]; 3 mg/kg p.o. once daily) | tumor-drug concentration ([1]; 10 mg/kg p.o. once daily) | IC50 [2, 10] [µM] | IC50 [2, 11] [µM] | IC50 [3, 12] [µM] | IC50 [3, 13] [µM] | IC50 [4] [µM] | volumes of distribution [7] | PK dose proportionality [7] | plasma half-lives [7] | other results
C[C@H](N)[C@@H](O)C[C@@H](O)CCCCCCCCCCCCC(F)(F)F [CF3-Enigmol, (2S,3S,5S)-2-amino-18,18,18-trifluorooctadecane-3,5-diol] | 1147 | 9004 | – | – | – | – | – | – | – | – | –
CCCCCCCCCCCCC[C@H](O)C[C@H](O)[C@H](C)N [ESPD-0500, (2S,3S,5S)-2-aminooctadecane-3,5-diol] | 317 | 1565 | 7.37 ± 1.5 | 9.2 ± 2 | 12.6 ± 2.4 | 5.3 ± 1 | 10.5 ± 0.38 | large | dose proportional | long | IC50 ([2]; W2, text b101, summary over W2 and D6 strains, read-out: IC50 / anti-malarial activity on both W2 and D6 strains): 7 to 12 µM; IC50 [5]: 13 µM; IC50 [6]: 10 µM; Kp at 5 day ([7]; male, mouse, red blood cells (RBC) relative to plasma, po, 30 mg/kg, 30 mg/kg orally once per day, after 5th day of dosing, read-out: drug concentrations in RBCs relative to plasma levels): ~3; plasma levels increase from accumulation ([7]; 30 mg/kg orally once per day, after 5th day of dosing): about 30%
CCCCCCCCCCCCC[C@H](O)C[C@H](O)[C@H](C)NC [ESPD-0507, N-Methylenigmol] | – | – | 1.58 ± 0.13 | 0.9 ± 0.35 | 4.7 ± 0.1 | 1.7 ± 1 | 1.72 ± 0.01 | large | dose proportional | long | IC50 ([2]; W2, text b183, 546.94 ng/mL used for the morphology study, W2, read-out: IC50): 1.73 µM; parasitemia ([8]; 48 hour time point, start 1%, compound at 546.94 ng/mL): 1.3+/−0.3%; relative percentage of rings ([8]; culture with compound, 48 h): 41.9%; relative percentage of schizonts ([8]; culture with compound, 48 h): 18.9%; relative percentage of trophozoites ([8]; culture with compound, 48 h): 39.2%
CCCCCCCCCCCCC[C@H](O)CC(=O)C(C)(C)N [ESPD-0562, (S)-2-amino-5-hydroxy-2-methyloctadecan-3-one] | – | – | – | 2.6 ± 1.5 | – | 2.5 ± 0.1 | – | – | – | – | melting point: 31 to 33 °C
CCCCCCCCCCCCCCCC(=O)NC(CN1CCOCC1)C(O)c1ccccc1 (stereo not drawn) [threo-PPMP, phenyl-2-palmitoylamino-3-morpholino-1-propanol] | – | – | – | – | – | – | – | – | – | – | IC50 [9]: 0.85 µM
